Reference: US9957214B2, “Multifunctional radical quenchers” (ARIZONA BOARD OF REGENTS ON BEHALF OF ARIZONA STATE …, priority 2012, dated 2018)

Key:
FRDA lymphocytes = experiment: Suppression of ROS production (DCFH-DA flow cytometry) in DEM-treated FRDA lymphocytes; assay type: cell-based; conditions: FRDA lymphocytes or leukemic CEM cells depleted of glutathione with DEM; compared with natural product 8
Experimental: FIG. 2. Representative flow cytometric analysis of ROS production in FRDA lymphocytes. Following pretreatment with the indicated compounds (5 and 10 μM) for 16 h, the cells were treated with 5 mM diethyl maleate (DEM) for 80 min to deplete glutathione. The cells were washed in phosphate-buffered saline and suspended in phosphate-buffered saline containing 20 mM glucose. Cells were loaded with 10 μM dichlorodihydrofluorescein diacetate (DCFH-DA) for 20 min, and the green fluorescence (DCF) was measured by flow cytometry (C6 Accuri, BD Biosciences, San Jose, Calif.), using a 488 nm excitation laser and the FL1-H channel 530±15 nm emission filter. […] A total of 10,000 events was recorded for each sample and analyzed (C6 Accuri software, BD Biosciences). […] Data are expressed as the mean±SEM (n=3).
Intracellular ROS production was measured in FRDA lymphocyte cells (GM15850, Coriell Cell Repositories, Camden, N.J.) using the oxidant sensitive fluorescent probe 2,7-dichlorodihydrofluorescein diacetate (DCFH-DA) (Molecular Probes) as described previously (Khdour et al. (2011) Pharm. Res. 28, 2896-2909). […] The samples were analyzed immediately by flow cytometry (C6 Accuri, BD Biosciences, San Jose, Calif.), using a 488 nm excitation laser and the FL1-H channel 530±15 nm emission filter. The generation of ROS, mainly peroxides, was detected as a result of the oxidation of DCFH. […]

[1] = system: differentiated SH-SY5Y cells; experiment: Neuroprotection against Aβ 1-42 oligomer induced cytotoxicity (WST-1); assay type: cell-based, human; conditions: Aβ 1-42 oligomers 2.5 μM, 48 h
Experimental: FIG. 8. Effect of nitrogen-containing 1,4-benzoquinone 40 and geldanamycin on Aβ 1-42 induced neurotoxicity in differentiated SH-SY5Y cells.
The cytotoxic effect of Aβ 1-42 oligomers (2.5 μM) on differentiated SH-SY5Y cells was evaluated in presence and absence of the test compounds. Sequential treatment of the human SH-SY5Y neuroblastoma cell line with retinoic acid and brain-derived neurotrophic factor (BDNF) generates nearly pure populations of human neuron-like cells, thus providing a model for the study of neuronal differentiation and neuroprotection as previously described, with some modifications (Encinas et al. (2000) J. Neurochem. 75, 991-1003). […] The plates were incubated at 37° C. in an atmosphere having 95% humidity and 5% CO2 for 48 h and then cell viability was measured using a WST-1 Kit (Roche Diagnostics). […] Color intensity was measured with a 96-well plate at 450 nm using a SpectraMax M5 microplate reader (Molecular Devices, Sunnyvale, Calif.). Results are expressed as percentage of viable cells relative to untreated control after subtracting background. Data are expressed as means±S.E.M. (n=3).
Synthetic human Aβ 1-42 was purchased from AnaSpec (San Jose, Calif.). […] Aβ 1-42 peptide content was determined by the method of bicinchoninic acid assay (micro-BCA kit, Pierce) using BSA as reference.

Row | SMILES | Suppression of ROS (in words) (FRDA lymphocytes) | Effect on Aβ 1-42 induced cytotoxicity (in words) [1]
1 | CCCCCCCCCCCCCC1=C(OC)C(=O)C=C(NCCCC(=O)OC(C)(C)C)C1=O [Compound 7, tert-butyl 4-(4-methoxy-3,6-dioxo-5-tridecylcyclohexa-1,4-dienylamino)butanoate] | very effective in suppressing ROS | –
2 | COC1=C2CCCCCCCCCCCCCCCNC(=CC1=O)C2=O [Compound 40] | very effective in suppressing ROS | decreased Aβ 1-42 induced cytotoxicity in a concentration dependent manner
